Reference: US4791118A, “Quinolonecarboxylic acid derivatives and their preparation” (Kyorin Pharmaceutical Co., Ltd., priority 1985, dated 1988)
In brackets after ≈: the same amount, converted by molar mass.

Key:
[1] = test system: Acinetobacter anitratus IID 876; experiment: MIC, aerobic bacteria; type: cell-based; conditions: Acinetobacter calcoaceticus, IID876, Gram -, 10^6 cells/ml
From the text: (§1) | Organism (10^6 cells/ml)

[2] = test system: Klebsiella pneumoniae KY(GN)6445; experiment: MIC, aerobic bacteria; type: cell-based; conditions: Gram -, 10^6 cells/ml
From the text: as §1

[3] = test system: Morganella morganii IID 602; experiment: MIC, aerobic bacteria; type: cell-based; conditions: IID602, Gram -, 10^6 cells/ml
From the text: as §1

[4] = test system: S. aureus IID 670 (Terajima); experiment: MIC, aerobic bacteria; type: cell-based; conditions: Staphylococcus aureus, IID670, Gram +, 10^6 cells/ml
From the text: as §1

[5] = test system: S. agalactiae 4394; experiment: microbe, parasite or virus in culture; conditions: Streptococcus agalactiae
[6] = test system: S. pneumoniae 3727; experiment: MIC, clinical isolates; type: cell-based; conditions: Streptococcus pneumoniae; clinical isolate S. pneumoniae 3727; 10^6 cells/ml
[7] = test system: Peptostreptococcus anaerobius KYA 27337; experiment: MIC, anaerobic bacteria; type: cell-based; conditions: KYA27337, Gram +, 10^6 cells/ml
[8] = test system: Staphylococcus aureus 209 P; experiment: microbe, parasite or virus in culture
[9] = test system: P. maltophilia GIFU 2491; experiment: MIC, aerobic bacteria; type: cell-based; conditions: Stenotrophomonas maltophilia, GIFU2491, Gram -, 10^6 cells/ml
[10] = test system: S. agalactiae 4468; experiment: MIC, clinical isolates; type: cell-based; conditions: Streptococcus agalactiae; clinical isolate S. agalactiae 4468; 10^6 cells/ml
[11] = test system: Shigella sonnei IID 969; experiment: microbe, parasite or virus in culture; conditions: IID969
[12] = test system: S. marcescens GN 7577; experiment: MIC, aerobic bacteria; type: cell-based; conditions: Serratia marcescens, GN7577, Gram -, 10^6 cells/ml
[13] = test system: Yersinia enterocolitica IID 981; experiment: microbe, parasite or virus in culture; conditions: IID981
[14] = test system: P. cepacia GIFU 518; experiment: microbe, parasite or virus in culture; conditions: Burkholderia cepacia, GIFU518
[15] = test system: S. agalactiae 4342; experiment: MIC, clinical isolates; type: cell-based; conditions: Streptococcus agalactiae; clinical isolate S. agalactiae 4342; 10^6 cells/ml
[16] = test system: S. pneumoniae 4288; experiment: MIC, clinical isolates; type: cell-based; conditions: Streptococcus pneumoniae; clinical isolate S. pneumoniae 4288; 10^6 cells/ml
[17] = test system: S. agalactiae 4470; experiment: MIC, clinical isolates; type: cell-based; conditions: Streptococcus agalactiae; clinical isolate S. agalactiae 4470; 10^6 cells/ml
[18] = test system: E. faecalis IID 682; experiment: MIC, aerobic bacteria; type: cell-based; conditions: Enterococcus faecalis, IID682, Gram +, 10^6 cells/ml
[19] = test system: S. agalactiae 4049; experiment: MIC, clinical isolates; type: cell-based; conditions: Streptococcus agalactiae; clinical isolate S. agalactiae 4049; 10^6 cells/ml
[20] = test system: E. faecalis 604; experiment: MIC, clinical isolates; type: cell-based; conditions: Enterococcus faecalis; clinical isolate E. faecalis 604; 10^6 cells/ml
[21] = test system: K. pneumoniae 1-220S; experiment: microbe, parasite or virus in culture; conditions: Klebsiella pneumoniae, 1220S
[22] = test system: S. pyogenes 4340; experiment: MIC, clinical isolates; type: cell-based; conditions: Streptococcus pyogenes; clinical isolate S. pyogenes 4340; 10^6 cells/ml
[23] = test system: S. pneumoniae 2950; experiment: MIC, clinical isolates; type: cell-based; conditions: Streptococcus pneumoniae; clinical isolate S. pneumoniae 2950; 10^6 cells/ml
[24] = test system: B. fragilis 0558; experiment: MIC, anaerobic bacteria; type: cell-based; conditions: Bacteroides fragilis, Gram -, 10^6 cells/ml
From the text: as §1

[25] = test system: Clostridium difficile I-E; experiment: MIC, anaerobic bacteria; type: cell-based; conditions: Clostridioides difficile, Gram +, 10^6 cells/ml
From the text: as §1

[26] = test system: F. nucleatum; experiment: MIC, anaerobic bacteria; type: cell-based; conditions: Fusobacterium nucleatum, Gram -, 10^6 cells/ml
From the text: as §1

[27] = test system: Veillonella parvula KYA 10790; experiment: MIC, anaerobic bacteria; type: cell-based; conditions: KYA10790, Gram -, 10^6 cells/ml
From the text: as §1

[28] = test system: B. fragilis 25285; experiment: MIC, anaerobic bacteria; type: cell-based; conditions: Bacteroides fragilis, Gram -, 10^6 cells/ml
From the text: as §1

[29] = test system: B. distasonis 8503; experiment: MIC, anaerobic bacteria; type: cell-based; conditions: Parabacteroides distasonis, Gram -, 10^6 cells/ml
From the text: as §1

[30] = test system: Peptococcus magnus KY 017; experiment: MIC, anaerobic bacteria; type: cell-based; conditions: Finegoldia magna, KY017, Gram +, 10^6 cells/ml
From the text: as §1

[31] = test system: Pst. micros UPI 5464-1; experiment: MIC, anaerobic bacteria; type: cell-based; conditions: Parvimonas micra, UPI54641, Gram +, 10^6 cells/ml
From the text: as §1

[32] = test system: Bacteroides fragilis GM 7000; experiment: MIC, anaerobic bacteria; type: cell-based; conditions: GM7000, Gram -, 10^6 cells/ml
From the text: as §1

[33] = test system: Fusobacterium mortiferum 4249; experiment: MIC, anaerobic bacteria; type: cell-based; conditions: Gram -, 10^6 cells/ml
From the text: as §1

[34] = test system: B. vulgatus KYA 29327; experiment: MIC, anaerobic bacteria; type: cell-based; conditions: Phocaeicola vulgatus, KYA29327, Gram -, 10^6 cells/ml
From the text: as §1

[35] = test system: Bacillus subtilis PCI 219; experiment: microbe, parasite or virus in culture; conditions: PCI219
[36] = test system: F. necrophorum S-45; experiment: MIC, anaerobic bacteria; type: cell-based; conditions: Fusobacterium necrophorum, S45, Gram -, 10^6 cells/ml
[37] = test system: S. pyogenes 3130; experiment: MIC, clinical isolates; type: cell-based; conditions: Streptococcus pyogenes; clinical isolate S. pyogenes 3130; 10^6 cells/ml

Structure (SMILES)	MIC [1]	MIC [2]	MIC [3]	MIC [4]	MIC [5]	MIC [6]	MIC [7]	MIC [8]	MIC [9]	MIC [10]	MIC [11]	MIC [12]	MIC [13]	MIC [14]	MIC [15]	MIC [16]	MIC [17]	MIC [18]	MIC [19]	MIC [20]	further results
O=C(O)c1cn(C2CC2)c2c(F)c(N3CCC(CNCCF)C3)c(F)cc2c1=O (centres unmarked) [Exp. 2, 1-Cyclopropyl-7-[3-(2-fluoroethyl)aminomethyl-1-pyrrolidinyl]-6,8-difluoro-1,4-dihydro-4-oxo-3-quinolinecarboxylic acid]	0.05 µg/mL (≈ 0.122 µM)	0.05 µg/mL (≈ 0.122 µM)	0.2 µg/mL (≈ 0.489 µM)	0.025 µg/mL (≈ 0.0611 µM)	0.1 µg/mL (≈ 0.244 µM)	0.05 µg/mL (≈ 0.122 µM)	≤ 0.05 µg/mL	0.0125 µg/mL (≈ 0.0305 µM)	0.2 µg/mL (≈ 0.489 µM)	0.05 µg/mL (≈ 0.122 µM)	0.0125 µg/mL (≈ 0.0305 µM)	1.56 µg/mL (≈ 3.81 µM)	0.1 µg/mL (≈ 0.244 µM)	0.78 µg/mL (≈ 1.91 µM)	0.05 µg/mL (≈ 0.122 µM)	0.05 µg/mL (≈ 0.122 µM)	0.05 µg/mL (≈ 0.122 µM)	0.1 µg/mL (≈ 0.244 µM)	0.05 µg/mL (≈ 0.122 µM)	0.1 µg/mL (≈ 0.244 µM)	MIC [21]: 0.1 µg/mL (≈ 0.244 µM); MIC [22]: 0.05 µg/mL (≈ 0.122 µM); MIC [23]: 0.05 µg/mL (≈ 0.122 µM); MIC [24]: 0.39 µg/mL (≈ 0.953 µM); MIC [25]: 0.78 µg/mL (≈ 1.91 µM); MIC [26]: 0.2 µg/mL (≈ 0.489 µM); MIC [27]: 0.2 µg/mL (≈ 0.489 µM); MIC [28]: 0.39 µg/mL (≈ 0.953 µM); MIC [29]: 0.78 µg/mL (≈ 1.91 µM); MIC [30]: ≤ 0.05 µg/mL; MIC [31]: 0.2 µg/mL (≈ 0.489 µM); MIC [32]: 0.39 µg/mL (≈ 0.953 µM); MIC [33]: 0.2 µg/mL (≈ 0.489 µM); MIC [34]: 0.39 µg/mL (≈ 0.953 µM); MIC [35]: 0.0125 µg/mL (≈ 0.0305 µM); MIC [36]: 0.2 µg/mL (≈ 0.489 µM); MIC [37]: 0.05 µg/mL (≈ 0.122 µM)
O=C(O)c1cn(C2CC2)c2c(Cl)c(N3CCC(CNCCF)C3)c(F)cc2c1=O (centres unmarked) [Exp. 1, 8-Chloro-1-cyclopropyl-6-fluoro-7-[3-(2-fluoroethyl)aminomethyl-1-pyrrolidinyl]-1,4-dihydro-4-oxo-3-quinolinecarboxylic acid]	0.05 µg/mL (≈ 0.117 µM)	0.05 µg/mL (≈ 0.117 µM)	0.1 µg/mL (≈ 0.235 µM)	≤ 0.0063 µg/mL	0.1 µg/mL (≈ 0.235 µM)	0.025 µg/mL (≈ 0.0587 µM)	≤ 0.05 µg/mL	≤ 0.0063 µg/mL	0.2 µg/mL (≈ 0.47 µM)	0.025 µg/mL (≈ 0.0587 µM)	0.0125 µg/mL (≈ 0.0294 µM)	1.56 µg/mL (≈ 3.66 µM)	0.1 µg/mL (≈ 0.235 µM)	0.78 µg/mL (≈ 1.83 µM)	0.05 µg/mL (≈ 0.117 µM)	0.025 µg/mL (≈ 0.0587 µM)	0.025 µg/mL (≈ 0.0587 µM)	0.05 µg/mL (≈ 0.117 µM)	0.025 µg/mL (≈ 0.0587 µM)	0.05 µg/mL (≈ 0.117 µM)	MIC [21]: 0.1 µg/mL (≈ 0.235 µM); MIC [22]: 0.025 µg/mL (≈ 0.0587 µM); MIC [23]: 0.025 µg/mL (≈ 0.0587 µM); MIC [24]: ≤ 0.05 µg/mL; MIC [25]: 0.2 µg/mL (≈ 0.47 µM); MIC [26]: ≤ 0.05 µg/mL; MIC [27]: 0.1 µg/mL (≈ 0.235 µM); MIC [28]: ≤ 0.05 µg/mL; MIC [29]: 0.2 µg/mL (≈ 0.47 µM); MIC [30]: ≤ 0.05 µg/mL; MIC [31]: 0.1 µg/mL (≈ 0.235 µM); MIC [32]: ≤ 0.05 µg/mL; MIC [33]: ≤ 0.05 µg/mL; MIC [34]: ≤ 0.05 µg/mL; MIC [35]: ≤ 0.0063 µg/mL; MIC [36]: 0.1 µg/mL (≈ 0.235 µM); MIC [37]: 0.025 µg/mL (≈ 0.0587 µM)
